The record followed here is US9527885B2, “Hepatitis C virus inhibitors” (BRISTOL-MYERS SQUIBB COMPANY, priority 2011, dated 2016).

Test [1] relates to HCV genotype 1a (H77 strain) replicon in HUH-7 cells. In words: HCV replicon luciferase reporter assay, genotype 1a. In kind it is cell-based. The note with it: Hepatitis C virus, Huh-7, 72 h, 3 days incubation, read-out: LE_1a (EC50, range). The text has this:
(§1) An HCV replicon whole cell system was established as described by Lohmann V, Korner F, Koch J, Herian U, Theilmann L, Bartenschlager R., Science 285(5424):110-3 (1999) and modified to introduce a luciferase reporter, as first described by Krieger et al (Krieger N, Lohmann V, and Bartenschlager R, J. Virol. 75(10):4614-4624 (2001)). CDNA encoding a humanized form of the Renilla luciferase gene and a linker sequence fused directly to the 3′-end of the luciferase gene were introduced into the replicon construct using an Asc1 restriction site located in core, directly upstream of the neomycin marker gene. The adaptive mutation at position 1179 (serine to isoleucine) was also introduced (Blight K J, Kolykhalov, A A, Rice, C M, Science 290(5498):1972-1974). A stable cell line constitutively expressing this HCV replicon construct was generated by first linearizing plasmid DNAs with ScaI. RNA transcripts were synthesized in vitro using the T7 MegaScript transcription kit (Ambion, Austin, Tex.) according to manufacturer's directions. In vitro transcripts of the cDNA were transfected into the human hepatoma cell line, HUH-7. […] Resulting cell lines were characterized for positive and negative strand RNA production and protein production over time.
A stable HCV replicon luciferase reporter cell line representing the genotype 1a H77 strain (Yanagi M, Purcell R H, Emerson S U, et al. Transcripts from a single full-length cDNA clone of hepatitis C virus are infectious when directly transfected into the liver of a chimpanzee. Proc Natl Acad Sci USA 1997; 94(16):8738-8743) was generated as described previously for the genotype 1b (Con1) replicon luciferase cell line. The replicon construct was modified by introducing mutations were introduced into the genes encoding the NS3 helicase domain (proline replaced by leucine at position 1496) and NS5A (serine to isoleucine at position 2204) to improve replication in cell culture.
(§2) HCV replicon luciferase assays were developed to monitor the inhibitory effects of compounds described in the disclosure on HCV genotypes 1a and 1b viral replication. HUH-7 cells, constitutively expressing the HCV replicon, were grown in Dulbecco's Modified Eagle Media (DMEM) (Gibco-BRL) containing 10% Fetal calf serum (FCS) (Sigma) and 1 mg/mL G418 (Gibco-BRL). Compounds were serially diluted 3 folds in DMSO for a twenty-point titration and subsequently transferred to sterile 384-well tissue-culture treated plates (Corning cat #3571). The plates were then seeded with 50 μL of cells at a density of 3.0×10^3 cells/well in DMEM containing 4% FCS (final DMSO concentration at 0.5%). After 3 days incubation at 37° C., cells were analyzed for Renilla Luciferase activity using the EnduRen as substrate (Promega cat #E6485). The EnduRen substrate was diluted in DMEM and then added to the plates to a final concentration of 7.5 μM. The plates were incubated for 2 hrs at 37° C. and then read immediately for 30 seconds with Viewlux Imager (PerkinElmer) using a luminescence program. To assess cytotoxicity of compounds, CC50 values were generated by multiplexing the EnduRen-containing plates with Cell Titer-Blue (Promega, cat # G8082). Cell-Titer Blue (3 μL) was added to each well and incubated for 8 hrs at 37° C. The fluorescence signal from each well was read, with an excitation wavelength at 525/10 nm and an emission wavelength of 598/10 nm, using the Viewlux Imager.
(§3) The EC50 values for compounds were calculated by using a four-parameter logistic equation: y=A+((B−A)/(1+((C/x)^D))), where A and B denotes minimal and maximal % inhibition, respectively, C is the EC50, D is the hill slope and x represents compound concentration.
Background: In antiviral work, replicon cells carry a viral genome segment that copies itself.

In test [2] the test system is HCV genotype 1b (Con1) replicon in HUH-7 cells. In words: HCV replicon luciferase reporter assay, genotype 1b. In kind it is cell-based. Conditions: Hepatitis C virus, 72 h, 3 days incubation, read-out: LE_1b (EC50, range).
Text: as §1, with “time. […]” for “time.”
as §2, §3

The mark [3] stands for this setting: HCV genotype 1a replicon luciferase, class symbols.
Setting [4] is: HCV genotype 1b replicon luciferase, class symbols.
Where [5] appears, read: HCV genotype 1a replicon luciferase reporter, range class.
[6] abbreviates: HCV genotype 1b replicon luciferase reporter, range class.
[7] abbreviates: HCV genotype 1a replicon luciferase, range class.
Setting [8] is: HCV genotype 1b replicon luciferase, range class.

Each structure is given as a SMILES string. Where two headings read alike, the source gives them in different places.

The term EC50 denotes the concentration at which the effect is half-maximal. Take `CCOc1cnc(O[C@@H]2C[C@H]3C(=O)N[C@]4(C(=O)NS(=O)(=O)C5(C)CC5)C[C@H]4/C=C\CC[C@@H](C)C[C@@H](CC)[C@H](NC(=O)OC(C)(C)C(F)(F)F)C(=O)N3C2)c2ccccc12` [Compound 4202, 1,1,1-trifluoro-2-methylpropan-2-yl (2R,6S,7R,9R,13aS,14aR,16aS,Z)-2-(4-ethoxyisoquinolin-1-yloxy)-7-ethyl-9-methyl-14a-(1-methylcyclopropylsulfonylcarbamoyl)-5,16-dioxo-1,2,3,5,6,7,8,9,10,11,13a,14,14a,15,16,16a-hexadecahydrocyclopropa[e]pyrrolo[1,2-a][1,4]diazacyclopentadecin-6-ylcarbamate]: the EC50 in test [1] (setting [3]) and in test [2] (setting [4]) was less than 5.46 nM in each case.

For the compound `CC[C@@H]1C[C@H](C)CC/C=C\[C@@H]2C[C@@]2(C(=O)NS(=O)(=O)C2(C)CC2)NC(=O)[C@@H]2C[C@@H](Oc3nccc4cc(OC)c(F)cc34)CN2C(=O)[C@H]1NC(=O)OC(C)(C)C(F)(F)F` [Compound 4176, 1,1,1-trifluoro-2-methylpropan-2-yl (2R,6S,7R,9R,13aS,14aR,16aS,Z)-7-ethyl-2-(7-fluoro-6-methoxyisoquinolin-1-yloxy)-9-methyl-14a-(1-methylcyclopropylsulfonylcarbamoyl)-5,16-dioxo-1,2,3,5,6,7,8,9,10,11,13a,14,14a,15,16,16a-hexadecahydrocyclopropa[e]pyrrolo[1,2-a][1,4]diazacyclopentadecin-6-ylcarbamate], the concentration for a half-maximal effect (EC50) in test [1] (setting [3]) and in test [2] (setting [4]) was less than 5.46 nM each time.

As to `COc1ccc2c(O[C@@H]3C[C@H]4C(=O)N[C@]5(C(=O)NS(=O)(=O)C6(CF)CC6)C[C@H]5/C=C\CC[C@H](C)C[C@@H](C)[C@H](NC(=O)OC(C)(C)C(F)(F)F)C(=O)N4C3)nc(N(C)C)cc2c1` [Compound 3126, 1,1,1-trifluoro-2-methylpropan-2-yl ((2R,6S,7R,9S,13aS,14aR,16aS,Z)-2-((3-(dimethylamino)-6-methoxyisoquinolin-1-yl)oxy)-14a-(((1-(fluoromethyl)cyclopropyl)sulfonyl)carbamoyl)-7,9-dimethyl-5,16-dioxo-1,2,3,5,6,7,8,9,10,11,13a,14,14a,15,16,16a-hexadecahydrocyclopropa[e]pyrrolo[1,2-a][1,4]diazacyclopentadecin-6-yl)carbamate], the EC50 in test [1] (setting [5]) and in test [2] (setting [6]) was 4.82 to 103 nM in each case.

As to `CCOc1ccc2c(O[C@@H]3C[C@H]4C(=O)N[C@]5(C(=O)NS(=O)(=O)C6(C)CC6)C[C@H]5/C=C\CC[C@H](C)C[C@@H](C)[C@H](NC(=O)OC(C)(C)C(F)(F)F)C(=O)N4C3)nccc2c1` [Compound 5135, 1,1,1-trifluoro-2-methylpropan-2-yl ((2R,6S,7R,9S,13aS,14aR,16aS,Z)-2-((6-ethoxyisoquinolin-1-yl)oxy)-7,9-dimethyl-14a-(((1-methylcyclopropyl)sulfonyl)carbamoyl)-5,16-dioxo-1,2,3,5,6,7,8,9,10,11,13a,14,14a,15,16,16a-hexadecahydrocyclopropa[e]pyrrolo[1,2-a][1,4]diazacyclopentadecin-6-yl)carbamate], the values for the half-maximal effective concentration (EC50) in test [1] (setting [3]) and in test [2] (setting [4]) were 4.82 to 103 nM and less than 5.46 nM, respectively.

On to `CCOc1ccc2c(O[C@@H]3C[C@H]4C(=O)N[C@]5(C(=O)NS(=O)(=O)C6(C)CC6)C[C@H]5/C=C\CC[C@@H](C)C[C@@H](C)[C@H](NC(=O)OC(C)(C)C(F)(F)F)C(=O)N4C3)nccc2c1` [Compound 5136, 1,1,1-trifluoro-2-methylpropan-2-yl ((2R,6S,7R,9R,13aS,14aR,16aS,Z)-2-((6-ethoxyisoquinolin-1-yl)oxy)-7,9-dimethyl-14a-(((1-methylcyclopropyl)sulfonyl)carbamoyl)-5,16-dioxo-1,2,3,5,6,7,8,9,10,11,13a,14,14a,15,16,16a-hexadecahydrocyclopropa[e]pyrrolo[1,2-a][1,4]diazacyclopentadecin-6-yl)carbamate], for which the EC50 in test [1] (setting [3]) and in test [2] (setting [4]) was less than 5.46 nM throughout.

Regarding `COc1ccc2c(O[C@@H]3C[C@H]4C(=O)N[C@]5(C(=O)NS(=O)(=O)C6(C)CC6)C[C@H]5/C=C\CC[C@H](C)C[C@@H](C)[C@H](NC(=O)OC(C)(C)C(F)(F)F)C(=O)N4C3)nc(N(C)C)cc2c1` [Compound 3116, 1,1,1-trifluoro-2-methylpropan-2-yl ((2R,6S,7R,9S,13aS,14aR,16aS,Z)-2-((3-(dimethylamino)-6-methoxyisoquinolin-1-yl)oxy)-7,9-dimethyl-14a-(((1-methylcyclopropyl)sulfonyl)carbamoyl)-5,16-dioxo-1,2,3,5,6,7,8,9,10,11,13a,14,14a,15,16,16a-hexadecahydrocyclopropa[e]pyrrolo[1,2-a][1,4]diazacyclopentadecin-6-yl)carbamate], the EC50 was 4.82 to 103 nM in test [1] (setting [5]) and less than 5.46 nM in test [2] (setting [6]).

Take `COc1ccc2c(O[C@@H]3C[C@H]4C(=O)N[C@]5(C(=O)NS(=O)(=O)C6CC6)C[C@H]5/C=C\CC[C@H](C)C[C@@H](C)[C@H](NC(=O)O[C@@H]5C[C@@H]6C[C@@H]6C5)C(=O)N4C3)nc(-c3ccc(N4CCOCC4)cc3)cc2c1` [Compound 5194, (1R,3r,5S)-bicyclo[3.1.0]hexan-3-yl ((2R,6S,7R,9S,13aS,14aR,16aS,Z)-14a-((cyclopropylsulfonyl)carbamoyl)-2-((6-methoxy-3-(4-morpholinophenyl)isoquinolin-1-yl)oxy)-7,9-dimethyl-5,16-dioxo-1,2,3,5,6,7,8,9,10,11,13a,14,14a,15,16,16a-hexadecahydrocyclopropa[e]pyrrolo[1,2-a][1,4]diazacyclopentadecin-6-yl)carbamate]: the EC50 in test [1] (setting [7]) and in test [2] (setting [8]) was less than 5.46 nM in each case.

For the compound `[2H]C([2H])([2H])C(C)(OC(=O)N[C@@H]1C(=O)N2C[C@H](Oc3nccc4cc(OC)ccc34)C[C@H]2C(=O)N[C@]2(C(=O)NS(=O)(=O)C3(C)CC3)C[C@H]2/C=C\CC[C@@H](C)C[C@H]1C)C([2H])([2H])[2H]` [Compound 5177, 1,1,1,3,3,3-hexadeutero-2-methylpropan-2-yl ((2R,6S,7R,9R,13aS,14aR,16aS,Z)-2-((6-methoxyisoquinolin-1-yl)oxy)-7,9-dimethyl-14a-(((1-methylcyclopropyl)sulfonyl)carbamoyl)-5,16-dioxo-1,2,3,5,6,7,8,9,10,11,13a,14,14a,15,16,16a-hexadecahydrocyclopropa[e]pyrrolo[1,2-a][1,4]diazacyclopentadecin-6-yl)carbamate], the EC50 in test [1] (setting [7]) and in test [2] (setting [8]) was less than 5.46 nM in each case.
